The target in the first experiment is T1, FLT3 K663Q (Homo sapiens, UniProt P36888, K663Q).
T1 sequence (P36888 27-993 K663Q): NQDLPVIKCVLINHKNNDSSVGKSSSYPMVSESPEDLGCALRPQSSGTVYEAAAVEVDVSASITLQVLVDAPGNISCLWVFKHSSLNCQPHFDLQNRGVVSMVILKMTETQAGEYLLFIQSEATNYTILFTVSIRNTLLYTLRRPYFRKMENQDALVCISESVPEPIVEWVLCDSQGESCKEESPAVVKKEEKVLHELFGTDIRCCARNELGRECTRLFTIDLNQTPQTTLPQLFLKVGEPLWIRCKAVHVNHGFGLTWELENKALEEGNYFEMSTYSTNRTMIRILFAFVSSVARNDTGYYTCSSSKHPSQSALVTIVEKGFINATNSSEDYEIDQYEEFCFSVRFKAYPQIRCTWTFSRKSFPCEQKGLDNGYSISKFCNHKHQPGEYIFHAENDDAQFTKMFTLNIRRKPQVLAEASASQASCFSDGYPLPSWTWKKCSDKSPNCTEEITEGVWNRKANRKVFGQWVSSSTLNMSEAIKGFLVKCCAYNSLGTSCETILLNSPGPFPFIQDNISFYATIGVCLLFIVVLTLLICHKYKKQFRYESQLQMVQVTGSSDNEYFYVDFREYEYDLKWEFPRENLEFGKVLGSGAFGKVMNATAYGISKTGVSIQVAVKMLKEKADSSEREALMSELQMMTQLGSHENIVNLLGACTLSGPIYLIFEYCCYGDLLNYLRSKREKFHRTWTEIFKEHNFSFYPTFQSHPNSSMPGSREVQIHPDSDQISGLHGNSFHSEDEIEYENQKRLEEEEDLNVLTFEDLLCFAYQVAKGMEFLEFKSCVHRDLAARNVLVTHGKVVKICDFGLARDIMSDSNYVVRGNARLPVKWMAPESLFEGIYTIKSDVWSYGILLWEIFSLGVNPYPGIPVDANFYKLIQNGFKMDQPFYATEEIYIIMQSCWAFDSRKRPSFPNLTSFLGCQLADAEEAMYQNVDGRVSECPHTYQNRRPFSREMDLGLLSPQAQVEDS
The experiment can be described thus: DiscoverX KINOMEscan active site-directed competition binding, FLT3 K663Q. The conditions noted are these: Table 13; no ATP.
Description: (§1) Kinase binding data were obtained for various exemplary compounds prepared according to Examples 1-8 using the DiscoverX KINOMEscan® active site-directed competition binding site-directed assay protocol described below. […] As a result, the data report thermodynamic interaction affinities (Kd values), rather than IC50 values that are dependent on ATP concentrations. The assay uses a DNA-tagged version of the protein kinase, and an immobilized ligand bound to a solid support. Compounds that directly or indirectly prevent kinase binding to the immobilized ligand reduce the amount of kinase captured on the solid support, which is detected using an ultra-sensitive qPCR method. Affinity constants reported from the assay have been reported to be independent of the immobilized ligand used that is coupled to the solid support (See supplemental information in Fabian, M. A. et. al., (2005) Nat. Biotechnol. 23, 329-336; Wodicka, L. M. et. al., (2010) Chem. Biol. 17, 1241-1249.)
Kinase-tagged T7 phage strains were prepared in an E. coli host derived from the BL21 strain. E. coli were grown to log-phase and infected with T7 phage and incubated with shaking at 32 °C until lysis. The lysates were centrifuged and filtered to remove cell debris. The remaining kinases were produced in HEK-293 cells and subsequently tagged with DNA for qPCR detection. Streptavidin-coated magnetic beads were treated with biotinylated small molecule ligands for 30 minutes at room temperature to generate affinity resins for kinase assays. The liganded beads were blocked with excess biotin and washed with blocking buffer (SeaBlock (Pierce), 1% BSA, 0.05% Tween 20, 1 mM DTT) to remove unbound ligand and to reduce non-specific binding. […] Test compounds were prepared as 111x stocks in 100% DMSO. Kds were determined using an 11-point 3-fold compound dilution series with three DMSO control points. All compounds for Kd measurements are distributed by acoustic transfer (non-contact dispensing) in 100% DMSO. The compounds were then diluted directly into the assays such that the final concentration of DMSO was 0.9%. All reactions were performed in polypropylene 384-well plates. Each was a final volume of 0.02 mL. The assay plates were incubated at room temperature with shaking for 1 hour and the affinity beads were washed with wash buffer (1×PBS, 0.05% Tween 20). The beads were then re-suspended in elution buffer (1×PBS, 0.05% Tween 20, 0.5 μM nonbiotinylated affinity ligand) and incubated at room temperature with shaking for 30 minutes. The kinase concentration in the eluates was measured by qPCR. Binding constants (Kds) were calculated with a standard dose-response curve using the Hill equation. The Hill Slope was set to −1. Curves were fitted using a non-linear least square fit with the Levenberg-Marquardt algorithm.
as §1, with “9-12” for “1-8”
Kinase-tagged T7 phage strains were prepared in an E. coli host derived from the BL21 strain. […]
As to `COc1cn2ncc(-c3nc(N[C@H]4CNCC[C@@H]4F)c(C#N)cc3F)c2nc1C1CC1` [Compound 7, 6-(5-cyclopropyl-6-methoxypyrazolo[1,5-a]pyrimidin-3-yl)-5-fluoro-2-(((3S,4S)-4-fluoropiperidin-3-yl)amino)nicotinonitrile], the Kd was under 0.17 nM. The compound `COc1cn2ncc(-c3nc(N[C@H]4CNCC[C@@H]4F)c(C#N)cc3F)c2nc1C(C)(C)O` [Compound 10, 5-fluoro-2-(((3S,4S)-4-fluoropiperidin-3-yl)amino)-6-(5-(2-hydroxypropan-2-yl)-6-methoxypyrazolo[1,5-a]pyrimidin-3-yl)nicotinonitrile] showed a Kd of 1.1 nM. As to `COc1cn2ncc(-c3nc(N[C@H]4CNCC[C@@H]4F)c(F)cc3F)c2nc1C(C)(C)O` [Compound 13, 2-(3-(3,5-difluoro-6-(((3S,4S)-4-fluoropiperidin-3-yl)amino)pyridin-2-yl)-6-methoxypyrazolo[1,5-a]pyrimidin-5-yl)propan-2-ol], the Kd turned out to be 1.6 nM.

Staying with this experiment, now noted: Table 19; no ATP.
As for `COc1cn2ncc(-c3nc(N[C@H]4CNCC[C@@H]4F)ncc3F)c2nc1C(C)(C)O` [Compound 6a, 2-(3-(5-fluoro-2-(((3S,4S)-4-fluoropiperidin-3-yl)amino)pyrimidin-4-yl)-6-methoxypyrazolo[1,5-a]pyrimidin-5-yl)propan-2-ol], the affinity, expressed as Kd, was 2 nM. Compound `COc1cn2ncc(-c3ccnc(N[C@H]4CNCC[C@@H]4F)n3)c2nc1C1CC1` [Compound 7a, 4-(5-cyclopropyl-6-methoxypyrazolo[1,5-a]pyrimidin-3-yl)-N-((3S,4S)-4-fluoropiperidin-3-yl)pyrimidin-2-amine] returned a Kd of 0.82 nM. Compound `COc1cn2ncc(-c3cncc(N[C@H]4CNCC[C@@H]4F)n3)c2nc1C1CC1` [Compound 12a, 6-(5-cyclopropyl-6-methoxypyrazolo[1,5-a]pyrimidin-3-yl)-N-((3S,4S)-4-fluoropiperidin-3-yl)pyrazin-2-amine] registered a Kd of 0.44 nM. `COc1cn2ncc(-c3nc(N[C@@H]4CCCNC4)ncc3F)c2nc1C1CC1` [Compound 14a, (R)-4-(5-cyclopropyl-6-methoxypyrazolo[1,5-a]pyrimidin-3-yl)-5-fluoro-N-(piperidin-3-yl)pyrimidin-2-amine] yielded a Kd of under 0.17 nM. Still for that read-out and setting: then `COc1cn2ncc(-c3nc(N[C@H]4CNCC[C@@H]4F)ncc3F)c2nc1C1CC1` [Compound 15a, 4-(5-cyclopropyl-6-methoxypyrazolo[1,5-a]pyrimidin-3-yl)-5-fluoro-N-((3S,4S)-4-fluoropiperidin-3-yl)pyrimidin-2-amine], with 0.21 nM.

As usually defined, the Kd is the constant that tells how readily two partners part at equilibrium. A lower Kd goes with higher affinity.

Values taken from US20260374773A1, “MULTI-CYCLIC IRAK AND FLT3 INHIBITING COMPOUNDS AND USES THEREOF” (CHILDREN'S HOSPITAL MEDICAL CENTER, priority 2022, published 2026).
